From US12297235B2, “Synthetic peptide compounds and methods of use” (REALTA HOLDINGS, LLC, priority 2015, dated 2025)
Read-outs that look alike come from different tables or passages of the source. Square brackets hold non-standard residues; d marks the D form. Ends that are not written are not given here. Peptide text beside a SMILES is read from it. Sar = CNCC(=O)O

Legend:
Gardnerella = Gardnerella growth inhibition; assay type: cell-based
Experimental: The plates were then incubated at 37° C. overnight and then the plates were read on a spectrophotometer at an absorbance of OD600 nm to determine the turbidity of the solution. Decreased turbidity is indicative of inhibition of bacterial growth.
Complement activation was assayed by measuring the production of C5a using ELISA methodology. […] The associated inflammation causes the symptoms of bacterial vaginosis and increases the risk of HIV-transmission by disrupting normal barrier defenses in the vagina.

[1] = assay type: biochemical, human; details: 0.77 mM peptide in factor B-depleted serum
Experimental: (§1) Peptides were diluted to 0.77 mM in factor B-depleted human sera (Complement Technologies, Inc.) and incubated for 1 hour at 37° C. These peptides were then diluted with GVBS^++ to equal 2.5% serum, of which 0.25 ml was combined with 0.4 ml of GVBS^++ and 0.1 ml of sensitized sheep red blood cells (RBCs) and again incubated for 1 hour at 37° C. The procedure was stopped by the addition of 4.0 ml of GVBS^−− centrifuged for 5 minutes at 1,620×g, and the absorbance of the supernatants was read at 412 nm in a spectrophotometer. The percent lysis of each sample was standardized to that of the serum only control.
(§2) The final concentration of peptide in factor B-depleted serum was 0.77 mM. Each peptide was evaluated in triplicate and the mean values are reported. […] In the hemolytic assay, soluble peptides are standardized to water and insoluble peptides standardized to DMSO.
(§3) Polar Assortant peptides were serially diluted in undiluted factor B-depleted human sera (Complement Technologies, Inc.) and incubated for 1 hour at 37° C. Water, GVBS^++ and DMSO were included as controls. These peptides were then diluted with GVBS^++ to equal 2.5% serum, of which 0.25 ml was combined with 0.4 ml of GVBS^++ and 0.1 ml of sensitized sheep red blood cells (RBCs) and again incubated for 1 hour at 37° C. The procedure was stopped by the addition of 4.0 ml of GVBS^−−, centrifuged for 5 minutes at 1,620×g, and the absorbance of the supernatants was read at 412 nm in a spectrophotometer. The percent lysis of each sample was standardized to that of the serum only control.
(§4) The final concentration of peptide in factor B-depleted serum was 0.77 mM. […] In the hemolytic assay, soluble peptides were standardized to water and insoluble peptides standardized to DMSO.
(§5) The final concentration of peptide in factor B-depleted serum was 0.77 mM. […] In the hemolytic assay, soluble peptides are standardized to water and insoluble peptides standardized to DMSO.

Solubility in water = assay type: physicochemical
[2] = system: complement activation in factor B-depleted human sera; assay type: biochemical; details: factor B-depleted serum
Experimental: as §1, §2, §3, §4, §5

[3] = standardized to water or DMSO, Table 6

## CC[C@H](C)[C@H](N)C(=O)N[C@@H](C)C(=O)N[C@@H](CC(C)C)C(=O)N(C)CC(=O)N[C@@H](CC(C)C)C(=O)N[C@@H](CCC(=O)O)C(=O)N1CCC[C@H]1C(=O)N[C@H](C(=O)N[C@@H](CS)C(=O)N[C@@H](CS)C(=O)N[C@@H](CCC(N)=O)C(=O)N[C@@H](CCC(=O)O)C(=O)N[C@@H](CCCNC(=N)N)C(=O)N[C@@H](C)C(=O)N[C@@H](C)C(=O)O)[C@@H](C)CC [PA-I4Sar] (H-IAL[Sar]LEPICCQERAA-OH)
Gardnerella
  Inhibition of Gardnerella growth: inhibited the growth

## CC[C@H](C)[C@H](N)C(=O)N[C@@H](C)C(=O)N(C)CC(=O)N[C@H](C(=O)N[C@@H](CC(C)C)C(=O)N[C@@H](CCC(=O)O)C(=O)N1CCC[C@H]1C(=O)N[C@H](C(=O)N[C@@H](CS)C(=O)N[C@@H](CS)C(=O)N[C@@H](CCC(N)=O)C(=O)N[C@@H](CCC(=O)O)C(=O)N[C@@H](CCCNC(=N)N)C(=O)N[C@@H](C)C(=O)N[C@@H](C)C(=O)O)[C@@H](C)CC)[C@@H](C)CC [PA-L3Sar] (H-IA[Sar]ILEPICCQERAA-OH)
Gardnerella
  Inhibition of Gardnerella growth: inhibited the growth

## CC[C@H](C)[C@H](N)C(=O)N[C@@H](C)C(=O)N[C@@H](CC(C)C)C(=O)N[C@H](C(=O)N(C)CC(=O)N[C@@H](CCC(=O)O)C(=O)N1CCC[C@H]1C(=O)N[C@H](C(=O)N[C@@H](CS)C(=O)N[C@@H](CS)C(=O)N[C@@H](CCC(N)=O)C(=O)N[C@@H](CCC(=O)O)C(=O)N[C@@H](CCCNC(=N)N)C(=O)N[C@@H](C)C(=O)N[C@@H](C)C(=O)O)[C@@H](C)CC)[C@@H](C)CC [PA-L5Sar] (H-IALI[Sar]EPICCQERAA-OH)
Gardnerella
  Inhibition of Gardnerella growth: inhibited the growth

## CC[C@H](C)[C@H](NC(=O)[C@H](CC(C)C)NC(=O)[C@H](C)N)C(=O)N[C@@H](CC(C)C)C(=O)N[C@@H](CCC(=O)O)C(=O)N1CCC[C@H]1C(=O)N[C@H](C(=O)N[C@@H](CS)C(=O)N[C@@H](CS)C(=O)N(C)CC(=O)N[C@@H](CCC(=O)O)C(=O)N[C@@H](CCCNC(=N)N)C(=O)N[C@@H](C)C(=O)N[C@@H](C)C(=O)O)[C@@H](C)CC [PA-Q11Sar] (H-ALILEPICC[Sar]ERAA-OH; N-terminus and C-terminus assumed)
[1]; human, mean of triplicate, standardized to water (soluble) or DMSO (insoluble)
  hemolysis: 3.02%
Solubility in water; Table 5, sarcosine substitution peptides
  Solubility in water: No

## CC[C@H](C)[C@H](N)C(=O)N[C@@H](C)C(=O)N[C@@H](CC(C)C)C(=O)N[C@H](C(=O)N[C@@H](CC(C)C)C(=O)N[C@@H](CCC(=O)O)C(=O)N1CCC[C@H]1C(=O)N[C@H](C(=O)N[C@@H](CS)C(=O)N[C@@H](CS)C(=O)N[C@@H](CCC(N)=O)C(=O)N[C@@H](CCC(=O)O)C(=O)N[C@@H](CCCNC(=N)N)C(=O)N[C@@H](C)C(=O)N[C@@H](C)C(=O)NCCOCCOCCC(=O)O)[C@@H](C)CC)[C@@H](C)CC [PA-dPEG02]
[1]; [3]
  hemolysis: 11.6%

## CC[C@H](C)[C@H](N)C(=O)N[C@@H](C)C(=O)N[C@@H](CC(C)C)C(=O)N[C@H](C(=O)N[C@@H](CC(C)C)C(=O)N[C@@H](CCC(=O)O)C(=O)N1CCC[C@H]1C(=O)N[C@H](C(=O)N[C@@H](CS)C(=O)N[C@@H](CS)C(=O)N[C@@H](CCC(N)=O)C(=O)N[C@@H](CCC(=O)O)C(=O)N[C@@H](CCCNC(=N)N)C(=O)N[C@@H](C)C(=O)N[C@@H](C)C(=O)NCCOCCOCCOCCC(=O)O)[C@@H](C)CC)[C@@H](C)CC [PA-dPEG03]
[1]; [3]
  hemolysis: 12.6%

## CC[C@H](C)[C@H](N)C(=O)N[C@@H](C)C(=O)N[C@@H](CC(C)C)C(=O)N[C@H](C(=O)N[C@@H](CC(C)C)C(=O)N[C@@H](CCC(=O)O)C(=O)N1CCC[C@H]1C(=O)N[C@H](C(=O)N[C@@H](CS)C(=O)N[C@@H](CS)C(=O)N[C@@H](CCC(N)=O)C(=O)N[C@@H](CCC(=O)O)C(=O)N[C@@H](CCCNC(=N)N)C(=O)N[C@@H](C)C(=O)N[C@@H](C)C(=O)NCCOCCOCCOCCOCCC(=O)O)[C@@H](C)CC)[C@@H](C)CC [PA-dPEG04]
[1]; [3]
  hemolysis: 12.4%

## CC[C@H](C)[C@H](N)C(=O)N[C@@H](C)C(=O)N[C@@H](CC(C)C)C(=O)N[C@H](C(=O)N[C@@H](CC(C)C)C(=O)N[C@@H](CCC(=O)O)C(=O)N1CCC[C@H]1C(=O)N[C@H](C(=O)N[C@@H](CS)C(=O)N[C@@H](CS)C(=O)N[C@@H](CCC(N)=O)C(=O)N[C@@H](CCC(=O)O)C(=O)N[C@@H](CCCNC(=N)N)C(=O)N[C@@H](C)C(=O)N[C@@H](C)C(=O)NCCOCCOCCOCCOCCOCCOCCC(=O)O)[C@@H](C)CC)[C@@H](C)CC [PA-dPEG06]
[1]; [3]
  hemolysis: 44.8%

## CC[C@H](C)[C@H](N)C(=O)N[C@@H](C)C(=O)N[C@@H](CC(C)C)C(=O)N[C@H](C(=O)N[C@@H](CC(C)C)C(=O)N[C@@H](CCC(=O)O)C(=O)N1CCC[C@H]1C(=O)N[C@H](C(=O)N[C@@H](CS)C(=O)N[C@@H](CS)C(=O)N[C@@H](CCC(N)=O)C(=O)N[C@@H](CCC(=O)O)C(=O)N[C@@H](CCCNC(=N)N)C(=O)N[C@@H](C)C(=O)N[C@@H](C)C(=O)NCCOCCOCCOCCOCCOCCOCCOCCOCCC(=O)O)[C@@H](C)CC)[C@@H](C)CC [PA-dPEG08]
[1]; [3]
  hemolysis: 34.7%

## CC[C@H](C)[C@H](N)C(=O)N[C@@H](C)C(=O)N[C@@H](CC(C)C)C(=O)N[C@H](C(=O)N[C@@H](CC(C)C)C(=O)N[C@@H](CCC(=O)O)C(=O)N1CCC[C@H]1C(=O)N[C@H](C(=O)N[C@@H](CS)C(=O)N[C@@H](CS)C(=O)N[C@@H](CCC(N)=O)C(=O)N[C@@H](CCC(=O)O)C(=O)N[C@@H](CCCNC(=N)N)C(=O)N[C@@H](C)C(=O)N[C@@H](C)C(=O)NCCOCCOCCOCCOCCOCCOCCOCCOCCOCCOCCOCCOCCC(=O)O)[C@@H](C)CC)[C@@H](C)CC [PA-dPEG12]
[1]; [3]
  hemolysis: 11.4%

## CC[C@H](C)[C@H](N)C(=O)N[C@@H](C)C(=O)N[C@@H](CC(C)C)C(=O)N[C@H](C(=O)N[C@@H](CC(C)C)C(=O)N[C@@H](CCC(=O)O)C(=O)N1CCC[C@H]1C(=O)N[C@H](C(=O)N[C@@H](CS)C(=O)N[C@@H](CS)C(=O)N[C@@H](CCC(N)=O)C(=O)N[C@@H](CCC(=O)O)C(=O)N[C@@H](CCCNC(=N)N)C(=O)N[C@@H](C)C(=O)N[C@@H](C)C(=O)NCCOCCOCCOCCOCCOCCOCCOCCOCCOCCOCCOCCOCCOCCOCCOCCOCCC(=O)O)[C@@H](C)CC)[C@@H](C)CC [PA-dPEG16]
[1]; [3]
  hemolysis: 12%

## CC[C@H](C)[C@H](N)C(=O)N[C@@H](C)C(=O)N[C@@H](CC(C)C)C(=O)N[C@H](C(=O)N[C@@H](CC(C)C)C(=O)N[C@@H](CCC(=O)O)C(=O)N1CCC[C@H]1C(=O)N[C@H](C(=O)N[C@@H](CS)C(=O)N[C@@H](CS)C(=O)N[C@@H](CCC(N)=O)C(=O)N[C@@H](CCC(=O)O)C(=O)N[C@@H](CCCNC(=N)N)C(=O)N[C@@H](C)C(=O)N[C@@H](C)C(=O)NCCOCCOCCOCCOCCOCCOCCOCCOCCOCCOCCOCCOCCOCCOCCOCCOCCOCCOCCOCCOCCC(=O)O)[C@@H](C)CC)[C@@H](C)CC [PA-dPEG20]
[1]; [3]
  hemolysis: 11.4%

## CC[C@H](C)[C@H](N)C(=O)N[C@@H](C)C(=O)N[C@@H](CC(C)C)C(=O)N[C@H](C(=O)N[C@@H](CC(C)C)C(=O)N[C@@H](CCC(=O)O)C(=O)N1CCC[C@H]1C(=O)N[C@H](C(=O)N[C@@H](CS)C(=O)N[C@@H](CS)C(=O)N[C@@H](CCC(N)=O)C(=O)N[C@@H](CCC(=O)O)C(=O)N[C@@H](CCCNC(=N)N)C(=O)N[C@@H](C)C(=O)N[C@@H](C)C(=O)O)[C@@H](C)CC)[C@@H](C)CC [PA]
[1]; mean of triplicate, standardized to water (soluble) or DMSO (insoluble)
  hemolysis: 3.15%

## CC[C@H](C)[C@H](N)C(=O)N[C@@H](C)C(=O)N[C@@H](CC(C)C)C(=O)N[C@H](C(=O)N[C@@H](CC(C)C)C(=O)N[C@@H](CCC(=O)O)C(=O)N(C)CC(=O)N[C@H](C(=O)N[C@@H](CS)C(=O)N[C@@H](CS)C(=O)N[C@@H](CCC(N)=O)C(=O)N[C@@H](CCC(=O)O)C(=O)N(C)CC(=O)N[C@@H](C)C(=O)N[C@@H](C)C(=O)O)[C@@H](C)CC)[C@@H](C)CC [Peptide R13SarP7Sar, IALILE(Sar)ICCQE(Sar)AA] (H-IALILE[Sar]ICCQE[Sar]AA-OH)
Solubility in water; Table 7, PEGylated and Sar/Ala substitution peptides
  Solubility in water: No

## dPEG24-IALILEPICCQERAA (cysteine pairing not given here) [dPEG24-PA]
[2]
  Complement inhibition in hemolytic assay: varying degrees of complement inhibition

## dPEG24-IALILEPICCQERAA-dPEG24 (cysteine pairing not given here) [dPEG24-PA-dPEG24]
[2]
  Complement inhibition in hemolytic assay: varying degrees of complement inhibition
